Results from BindingDB's records for doi:10.1021/jm020955n (Johannes Gutenberg-Universität, 2002).

Target: Glutamate receptor ionotropic, NMDA 1 glycine site (Sus scrofa)
Experiment: Tested for the affinity for the glycine binding site of the N-methyl-D-aspartate glutamate receptor using pig brain membranes in binding assay with [3H]-MDL- 105,519

| Ki | SMILES |
| --- | --- |
| 2900 nM | O=C(O)c1cc2c(Cl)cc(Cl)cc2[nH]1 |
| 990 nM | O=C(O)c1[nH]c2cc(Cl)cc(Cl)c2c1CNS(=O)(=O)c1ccccc1 [3-(Benzenesulfonylamino-methyl)-4,6-dichloro-1H-indole-2-carboxylic acid] |
| 92000 nM | O=C(O)c1[nH]c2cc(Cl)cc(Cl)c2c1CNCc1ccccc1 [3-(Benzylamino-methyl)-4,6-dichloro-1H-indole-2-carboxylic acid] |
| 57 nM | CC(=O)c1cccc(-n2c(O)cn(Cc3c(C(=O)O)[nH]c4cc(Cl)cc(Cl)c34)c2=O)c1 [3-[3-(3-Acetyl-phenyl)-2,4-dioxo-imidazolidin-1-ylmethyl]-4,6-dichloro-1H-indole-2-carboxylic acid] |
| 150 nM | CC(=O)c1ccc(-n2c(O)cn(Cc3c(C(=O)O)[nH]c4cc(Cl)cc(Cl)c34)c2=O)cc1 [3-[3-(4-Acetyl-phenyl)-2,4-dioxo-imidazolidin-1-ylmethyl]-4,6-dichloro-1H-indole-2-carboxylic acid] |
| 36 nM | Cc1ccc(-n2c(O)cn(Cc3c(C(=O)O)[nH]c4cc(Cl)cc(Cl)c34)c2=O)cc1 [4,6-Dichloro-3-(2,4-dioxo-3-p-tolyl-imidazolidin-1-ylmethyl)-1H-indole-2-carboxylic acid] |
| 22 nM | O=C(O)c1[nH]c2cc(Cl)cc(Cl)c2c1Cn1cc(O)n(-c2ccccc2)c1=O [4,6-Dichloro-3-(2,4-dioxo-3-phenyl-imidazolidin-1-ylmethyl)-1H-indole-2-carboxylic acid] |
| 58 nM | O=C(O)c1[nH]c2cc(Cl)cc(Cl)c2c1CN1CCN(c2ccccc2)C1=O [4,6-Dichloro-3-(2-oxo-3-phenyl-imidazolidin-1-ylmethyl)-1H-indole-2-carboxylic acid] |
| 130 nM | O=C(O)c1[nH]c2cc(Cl)cc(Cl)c2c1Cn1cc(O)n(C2CCCCC2)c1=O [4,6-Dichloro-3-(3-cyclohexyl-2,4-dioxo-imidazolidin-1-ylmethyl)-1H-indole-2-carboxylic acid] |
| 1000 nM | CCn1c(O)cn(Cc2c(C(=O)O)[nH]c3cc(Cl)cc(Cl)c23)c1=O [4,6-Dichloro-3-(3-ethyl-2,4-dioxo-imidazolidin-1-ylmethyl)-1H-indole-2-carboxylic acid] |
| 1050 nM | CC(C)n1c(O)cn(Cc2c(C(=O)O)[nH]c3cc(Cl)cc(Cl)c23)c1=O [4,6-Dichloro-3-(3-isopropyl-2,4-dioxo-imidazolidin-1-ylmethyl)-1H-indole-2-carboxylic acid] |
| 580 nM | O=C(O)c1[nH]c2cc(Cl)cc(Cl)c2c1Cn1cc(O)n(-c2ccccc2)c1=S [4,6-Dichloro-3-(4-oxo-3-phenyl-2-thioxo-imidazolidin-1-ylmethyl)-1H-indole-2-carboxylic acid] |
| 310 nM | Cc1c(O)n(-c2ccccc2)c(=O)n1Cc1c(C(=O)O)[nH]c2cc(Cl)cc(Cl)c12 [4,6-Dichloro-3-(5-methyl-2,4-dioxo-3-phenyl-imidazolidin-1-ylmethyl)-1H-indole-2-carboxylic acid] |
| 80 nM | O=C(O)c1[nH]c2cc(Cl)cc(Cl)c2c1Cn1cc(O)n(-c2cc(Cl)cc(Cl)c2)c1=O [4,6-Dichloro-3-[3-(3,5-dichloro-phenyl)-2,4-dioxo-imidazolidin-1-ylmethyl]-1H-indole-2-carboxylic acid] |
| 85 nM | O=C(O)c1[nH]c2cc(Cl)cc(Cl)c2c1Cn1cc(O)n(-c2cccc(Cl)c2)c1=O [4,6-Dichloro-3-[3-(3-chloro-phenyl)-2,4-dioxo-imidazolidin-1-ylmethyl]-1H-indole-2-carboxylic acid] |
| 120 nM | O=C(O)c1[nH]c2cc(Cl)cc(Cl)c2c1Cn1cc(O)n(-c2ccc(Cl)cc2)c1=O [4,6-Dichloro-3-[3-(4-chloro-phenyl)-2,4-dioxo-imidazolidin-1-ylmethyl]-1H-indole-2-carboxylic acid] |
| 53 nM | O=C(O)c1[nH]c2cc(Cl)cc(Cl)c2c1Cn1cc(O)n(-c2ccc(F)cc2)c1=O [4,6-Dichloro-3-[3-(4-fluoro-phenyl)-2,4-dioxo-imidazolidin-1-ylmethyl]-1H-indole-2-carboxylic acid] |
| 100 nM | COc1ccc(-n2c(O)cn(Cc3c(C(=O)O)[nH]c4cc(Cl)cc(Cl)c34)c2=O)cc1 [4,6-Dichloro-3-[3-(4-methoxy-phenyl)-2,4-dioxo-imidazolidin-1-ylmethyl]-1H-indole-2-carboxylic acid] |
| 14 nM | O=C(NCc1c(C(=O)O)[nH]c2cc(Cl)cc(Cl)c12)Nc1ccccc1 [4,6-Dichloro-3-[(3-phenyl-ureido)-methyl]-1H-indole-2-carboxylic acid] |
| 72 nM | O=C(NCc1c(C(=O)O)[nH]c2cc(Cl)cc(Cl)c12)NS(=O)(=O)c1ccccc1 [4,6-dichloro-3-[({[(phenylsulfonyl)amino]carbonyl}amino)methyl]-1H-indole-2-carboxylic acid] |
